Experimental data taken from paper PMC9000738, “Diterpenoid Alkaloids Isolated from Delphinium brunonianum and Their Inhibitory Effects on Hepatocytes Lipid Accumulation” (Molecules, 2022).
Read-outs that look alike come from different tables or passages of the source.

Assays:
FFA-induced HepG2 cells [1] = test: Oil red O staining in FFA-induced HepG2 cells; format: cell-based; conditions: 10 µM, 1 mM FFA-induced HepG2 cells
Method: Figure S79. Oil red O staining of lipid droplets and quantitative analysis in HepG2 cells treated with or without 1 mM FFA mixed compounds 4, 5, 7, 8, and 12 (10 µM), 400 ×; The images shown about quantitative analysis s of red stained cells are representatives of 3 replicates of each. The values are presented as mean ± SEM. ### p < 0.001, vs. the control group; * p < 0.05, ** p < 0.01, vs. the model group. […]

FFA-induced BRL cells [2] = format: cell-based, rat; conditions: for TG level (TG secretion, lipid accumulation): 10 μM, 24 h, vs. model group; for TG level (TG secretion, lipid accumulation) / TC level / TG level / ALT level / AST level: 0.5 mM FFA-induced BRL cells; for TC level / TG level / ALT level / AST level: 1, 5 or 10 µM; for ALT level / AST level: medium; for inhibitory effects on hepatocytes lipid accumulation: FFA-induced BRL cells, 1, 5 and 10 µM
Method: We selected FFA-induced BRL cells (oleate and palmitate ratio was 2:1) to establish a cellular NAFLD model, which is a widely used method by researchers for studying diseases related to hepatocytes lipid accumulation. The TG secretion was measured to preliminarily evaluate the inhibitory effect on lipid accumulation of 15 isolated alkaloid compounds. […] Compounds 1–15 were tested at a concentration of 10 μM in FFA-induced BRL cells to determine their inhibitory effects on hepatocytes TG secretion (Figure 5). Atorvastatin calcium (ATC) is a statin cholesterol-lowering drug and widely used in the clinical treatment of hyperlipidemia and NAFLD, etc.. Therefore, we used atorvastatin calcium (ATC, 10 µM) as a positive control drug.
BRL cells were grown in 24-well plates until 70–80% confluence. Subsequently, 0.5 mM FFA (oleate and palmitate in a final ratio of 2:1) was applied for 24 h to establish an in vitro model of hepatocytes lipid accumulation in the model group, treated with 0.5 mM FFA combination with 1, 5, or 10 µM isolated compounds for 24 h in alkaloids groups. A portion of 1% bovine serum albumin (BSA) was added in BRL cells of the control group. Then, the medium of each group was collected for determination of ALT and AST levels by commercial kits. After removing the medium, 200 µL of 0.25% trypsin was added to digest the cells in 37 °C for 2 min. Then, 500 µL of DMEM that contained 10% fetal bovine serum (FBS) was added to stop digesting. Cells suspension was centrifuged at 800 r/min for 3 min. After adding 200 µL of ethanol, cells were collected and crushed by ultrasonic cell disruptor at 4 °C. Part of the cell fragmentation solution was used for the determination of cell protein content, the other part was used to determine TG and TC levels by commercial kits according to the manufacturer’s instruction.

FFA-induced BRL cells [3] = test: Oil red O staining of lipid droplets and quantitative analysis in FFA-induced BRL cells; format: cell-based, rat; conditions: 10 µM, 0.5 mM FFA-induced BRL cells; for fold change of red-stained cell area (quantitative analysis of lipid accumulation): ImageJ, p < 0.001 vs. model group; for lipid accumulation by oil red O staining: vs. model group
Method: Combined with the oil red O staining and quantitative analysis assay, the effect of reducing lipid accumulation of compounds 4, 5, 7, 8, and 12 was performed in FFA-induced BRL cells. […] Quantitative analysis of lipid accumulation was also analyzed by ImageJ 1.8.0 software by calculating the area of red-stained cells (Figure 7C).
BRL cells were plated in 96-well plates until reaching 70–80% confluence and treated with 0.5 mM FFA mixture and the tested compounds for 24 h. Controls were incubated for the same period in complete medium.
After 24 h of incubation, the cells were fixed with 5% formalin solution for 30 min and then incubated with oil red O working solution for 15 min at room temperature. After that, the cells were washed once with 60% isopropanol and three times with water. The nuclei were stained with hematoxylin solution for 2 min at room temperature. Then, the operation of oil red O staining was referred to the previous research. Finally, the red oil droplets were observed using an optical microscope.

FFA-induced HepG2 cells [4] = test: TG secretion assay in FFA-induced HepG2 cells; format: cell-based; conditions: 10 µM, 1 mM FFA-induced HepG2 cells
Method: Figure S78. Effects of compounds (4, 5, 7, 8, and 12) on TG level in FFA-induced HepG2 cells. HepG2 cells were treated with a mixture of 1 mM FFA in the absence o r presence of compounds (4, 5, 7, 8, and 12) at the concentration of 10 µM. The values are presented as mean ± SEM of six independent experiments. ### p < 0.001, vs. the control group; * p < 0.05, ** p < 0.01, vs. the model group. […]

BRL cells = test: Cell viability by CCK-8 assay in BRL cells; format: cell-based; conditions: Rattus norvegicus
Method: The cell viability (%) of the isolated diterpenoid alkaloids in the concentration range of 1–500 μM and the time-effectiveness of them for 24 h and 48 h were evaluated using CCK-8 assay (Figure 4). […] The IC50 values of 15 compounds and positive drug were calculated by SPSS 23.0 software. […] Therefore, through the entire experiments, the maximum concentration of tested diterpenoid alkaloids was limited to 10 μM, a concentration about one-tenth to one-fiftieth of IC50 of them. In addition, optimum dosage of modeling agent (FFA) was also selected as the concentration of 0.5 mM through CCK-8 assay (Figure S77).
Buffalo rat liver (BRL) cells were obtained from the Cell Bank, Committee for Typical Culture Preservation, Chinese Academy of Sciences. BRL cells were cultured in DMEM (containing 10% fetal bovine serum and 1% penicillin/streptomycin) under humidified 5% CO2 (v/v) atmosphere at 37 °C. To determine the cell viability of compounds 1–15, the CCK-8 assay was performed. The fifteen isolated compounds were dissolved in DMSO and diluted 1:1000 in culture medium, respectively. Cells were seeded in 96-well plates (6 × 10^3 cells per well) for 24 h incubation and then treatment with different concentrations (1, 10, 20, 50, 100, 200, and 500 µM) of each compound for 24 h or 48 h, respectively. CCK-8 solution (10% of the total solution) was added to each well, further incubated for 1 h at 37 °C. The absorbance was measured at 450 nm using a Multimode Microplate Reader.

[5] = BRL cells, CCK-8 assay, concentration range 1–500 μM, incubation time (24 h or 48 h) not stated, read-out: IC50

## CCN1C[C@]2(CO)CC[C@H](OC)[C@@]34[C@@H]5C[C@H]6[C@H](OC)[C@@H]5[C@](O)(C[C@@H]6OC)[C@](O)([C@@H](OC)[C@H]23)[C@@H]14 [Compound 7, lycoctonine]
FFA-induced HepG2 cells [1]
  lipid accumulation by oil red O evaluation: good inhibitory effects on lipid accumulation
FFA-induced BRL cells [2]
  TG level (TG secretion, lipid accumulation): better than that of the positive control drug
  TC level: ameliorated
  TG level: ameliorated
  ALT level: ameliorated
  AST level: ameliorated
  inhibitory effects on hepatocytes lipid accumulation: strong inhibitory effects on hepatocytes lipid accumulation in a dose-dependent manner
FFA-induced BRL cells [3]
  fold change of red-stained cell area (quantitative analysis of lipid accumulation): less than the model group
  lipid accumulation by oil red O staining: significantly reduce lipid accumulation
FFA-induced HepG2 cells [4]
  lipid accumulation by TG secretion assay: good inhibitory effects on lipid accumulation
BRL cells; [5]
  IC50: > 500 µM

## CCN1CC2(COC)CCC(OC)C34C5CC6C(OC)CC7(OCOC7(C(OC)C23)C14)C5C6O (stereo not shown) [Compound 5, delbruline]
FFA-induced HepG2 cells [1]
  lipid accumulation by oil red O evaluation: good inhibitory effects on lipid accumulation
FFA-induced BRL cells [2]
  TG level (TG secretion, lipid accumulation): better than that of the positive control drug
  TC level: ameliorated
  TG level: ameliorated
  ALT level: ameliorated
  AST level: ameliorated
  inhibitory effects on hepatocytes lipid accumulation: strong inhibitory effects on hepatocytes lipid accumulation in a dose-dependent manner
FFA-induced BRL cells [3]
  fold change of red-stained cell area (quantitative analysis of lipid accumulation): less than the model group
  lipid accumulation by oil red O staining: significantly reduce lipid accumulation
FFA-induced HepG2 cells [4]
  lipid accumulation by TG secretion assay: good inhibitory effects on lipid accumulation
BRL cells; [5]
  IC50: > 500 µM

## CC(C)c1c(C(=O)Nc2ccccc2)c(-c2ccccc2)c(-c2ccc(F)cc2)n1CC[C@@H](O)C[C@@H](O)CC(=O)O [positive (ATC), Atorvastatin calcium, reference compound]
BRL cells; [5]
  IC50: 88.4 µM

## CCN1CC2(COC)CCC(O)C34C5CC6C(OC)CC(O)(C5C6O)C(O)(C(OC)C23)C14 (stereo not shown) [Compound 9, delcosine]
BRL cells
  IC50: > 500 µM

## CCN1C[C@]2(C)CC[C@H](OC)[C@@]34C1[C@@]1(OCO[C@@]15C[C@H](OC)[C@H]1C[C@@H]3[C@@H]5[C@H]1O)[C@@H](O)[C@H]24 [Compound 6, delpheline]
BRL cells
  IC50: > 500 µM

## CCN1CC2(COC(=O)c3ccccc3NC(=O)C(C)CC(=O)O)CCC(OC)C34C5CC6C(OC)CC(O)(C5C6OC)C(O)(C(OC)C23)C14 (stereo not shown) [Compound 14, shawurensine]
FFA-induced BRL cells [2]
  TG level (TG secretion, lipid accumulation): had the effect of inhibiting the lipid accumulation (TG secretion)
BRL cells
  IC50: > 500 µM

## CCN1CC2(COC(=O)c3ccccc3NC(=O)CC(C)C(=O)O)CCC(OC)C34C5CC6C(OC)CC(O)(C5C6OC)C(O)(C(OC)C23)C14 (stereo not shown) [Compound 15, delavaine B]
FFA-induced BRL cells [2]
  TG level (TG secretion, lipid accumulation): had the effect of inhibiting the lipid accumulation (TG secretion)
BRL cells
  IC50: > 500 µM

## CCN1CC2(COC)CCC(OC)C34C5CC6C(OC)CC(O)(C5C6O)C(O)(C(OC)C23)C14 (stereo not shown) [Compound 13, browniine]
BRL cells
  IC50: > 500 µM

## CCN1CC2(COC)CCC(O)C34C5CC6C(OC)CC7(OCOC7(C(OC)C23)C14)C5C6O (stereo not shown) [Compound 8, delbrunine]
FFA-induced HepG2 cells [1]
  lipid accumulation by oil red O evaluation: good inhibitory effects on lipid accumulation
FFA-induced BRL cells [2]
  TG level (TG secretion, lipid accumulation): better than that of the positive control drug
  TC level: ameliorated
  TG level: ameliorated
  ALT level: ameliorated
  AST level: ameliorated
  inhibitory effects on hepatocytes lipid accumulation: strong inhibitory effects on hepatocytes lipid accumulation in a dose-dependent manner
FFA-induced BRL cells [3]
  fold change of red-stained cell area (quantitative analysis of lipid accumulation): less than the model group
  lipid accumulation by oil red O staining: significantly reduce lipid accumulation
FFA-induced HepG2 cells [4]
  lipid accumulation by TG secretion assay: good inhibitory effects on lipid accumulation
BRL cells; [5]
  IC50: 408 µM

## CCN1C[C@]2(COC(=O)c3ccccc3N)CC[C@H](OC)[C@]34C1[C@](O)([C@@H](OC)[C@H]23)[C@@]1(O)C[C@H](OC)[C@H]2C[C@@H]4[C@@H]1[C@H]2OC [Compound 11, anthranoyllycoctonine]
BRL cells; [5]
  IC50: 300 to 500 µM

## CCN1CC2(COC)CCC(O)C34C5CC6C(OC)CC7(OCOC7(C(O)C23)C14)C5C6OC (stereo not shown) [Compound 10, uraphine]
BRL cells
  IC50: > 500 µM
